Measurements: patent publication US4971965A, “Antibiotics TAN-1057” (Takeda Chemical Industries, Ltd., priority 1988, dated 1990)
Values after ≈ are worked out from the molar mass of the structure shown. Where two headings read alike, the source gives them in different places. Each block holds one molecule with its values, some of them ahead of it.

What was measured:
Assay in all cases: Antibacterial activity against clinically isolated S. aureus (agar dilution MIC, Table 2)
Assay type in all cases: cell-based
[1] = test system: Staphylococcus aureus C10; conditions: Staphylococcus aureus
Procedure: (§1) DMPPC: Methicillin, KM: Kanamycin, GM: Gentamycin, EM: Erythromycin (Note
(§2) Determined by the agar dilution method. Medium: Mueller Hinton medium
(§3) (Difco, USA) Inoculum Size: 10^6 CFU/ml, 37° C.

[2] = test system: Staphylococcus aureus C3; conditions: Staphylococcus aureus
Procedure: as §1, §2, §3

[3] = test system: Staphylococcus aureus C4; conditions: Staphylococcus aureus
Procedure: as §1, §2, §3

[4] = test system: Staphylococcus aureus C7; conditions: Staphylococcus aureus
Procedure: as §1, §2, §3

[5] = test system: Staphylococcus aureus FDA 209P; conditions: Staphylococcus aureus, FDA209P
Procedure: as §1, §2, §3

[6] = test system: Staphylococcus aureus N121; conditions: Staphylococcus aureus
Procedure: as §1, §2, §3

[7] = test system: Staphylococcus aureus N129; conditions: Staphylococcus aureus
Procedure: as §1, §2, §3

[8] = test system: Staphylococcus aureus N176-3; conditions: Staphylococcus aureus, N1763
Procedure: as §1, §2, §3

[9] = test system: Staphylococcus aureus N176-6; conditions: Staphylococcus aureus, N1766
Procedure: as §1, §2, §3

[10] = test system: Staphylococcus aureus N176; conditions: Staphylococcus aureus
Procedure: as §1, §2, §3

[11] = test system: Staphylococcus aureus N235; conditions: Staphylococcus aureus
Procedure: as §1, §2, §3

[12] = test system: Staphylococcus aureus N237; conditions: Staphylococcus aureus
Procedure: as §1, §2, §3

[13] = test system: Staphylococcus aureus N247-16; conditions: Staphylococcus aureus, N24716
Procedure: as §1, §2, §3

[14] = test system: Staphylococcus aureus N247-21; conditions: Staphylococcus aureus, N24721
Procedure: as §1, §2, §3

[15] = test system: Staphylococcus aureus N247; conditions: Staphylococcus aureus
Procedure: as §1, §2, §3

[16] = test system: Staphylococcus aureus N262; conditions: Staphylococcus aureus
Procedure: as §1, §2, §3

[17] = test system: Staphylococcus aureus N267; conditions: Staphylococcus aureus
Procedure: as §1, §2, §3

[18] = test system: Staphylococcus aureus N28; conditions: Staphylococcus aureus
Procedure: as §1, §2, §3

[19] = test system: Staphylococcus aureus N326; conditions: Staphylococcus aureus
Procedure: as §1, §2, §3

[20] = test system: Staphylococcus aureus N51; conditions: Staphylococcus aureus
Procedure: as §1, §2, §3

[21] = test system: Staphylococcus aureus N62; conditions: Staphylococcus aureus
Procedure: as §1, §2, §3

[22] = test system: Staphylococcus aureus N64; conditions: Staphylococcus aureus
Procedure: as §1, §2, §3

[23] = test system: Staphylococcus aureus N83; conditions: Staphylococcus aureus
Procedure: as §1, §2, §3

[24] = test system: Staphylococcus aureus N8; conditions: Staphylococcus aureus
Procedure: as §1, §2, §3

[25] = test system: Staphylococcus aureus N91; conditions: Staphylococcus aureus
Procedure: as §1, §2, §3

[26] = test system: Staphylococcus aureus TS-65; conditions: Staphylococcus aureus, TS65
Procedure: as §1, §2, §3

[27] = test system: Staphylococcus aureus TST-75; conditions: Staphylococcus aureus, TST75
Procedure: as §1, §2, §3

MIC ([1]; strain C10, agar dilution, Mueller Hinton medium, 10^6 CFU/ml, read-out: MIC): 800 mg/L (≈ 2100 µM)
MIC ([2]; strain C3, agar dilution, Mueller Hinton medium, 10^6 CFU/ml, read-out: MIC): 50 mg/L (≈ 131 µM)
MIC ([3]; strain C4, agar dilution, Mueller Hinton medium, 10^6 CFU/ml, read-out: MIC): 50 mg/L (≈ 131 µM)
MIC ([4]; strain C7, agar dilution, Mueller Hinton medium, 10^6 CFU/ml, read-out: MIC): 50 mg/L (≈ 131 µM)
MIC ([5]; strain FDA 209P, agar dilution, Mueller Hinton medium, 10^6 CFU/ml, read-out: MIC): 1.56 mg/L (≈ 4.1 µM)
MIC ([6]; strain N121, agar dilution, Mueller Hinton medium, 10^6 CFU/ml, read-out: MIC): 50 mg/L (≈ 131 µM)
MIC ([7]; strain N129, agar dilution, Mueller Hinton medium, 10^6 CFU/ml, read-out: MIC): 400 mg/L (≈ 1050 µM)
MIC ([8]; strain N176-3, agar dilution, Mueller Hinton medium, 10^6 CFU/ml, read-out: MIC): 50 mg/L (≈ 131 µM)
MIC ([9]; strain N176-6, agar dilution, Mueller Hinton medium, 10^6 CFU/ml, read-out: MIC): 200 mg/L (≈ 526 µM)
MIC ([10]; strain N176, agar dilution, Mueller Hinton medium, 10^6 CFU/ml, read-out: MIC): 12.5 mg/L (≈ 32.9 µM)
MIC ([11]; strain N235, agar dilution, Mueller Hinton medium, 10^6 CFU/ml, read-out: MIC): 1.56 mg/L (≈ 4.1 µM)
MIC ([12]; strain N237, agar dilution, Mueller Hinton medium, 10^6 CFU/ml, read-out: MIC): 20 mg/L (≈ 52.6 µM)
MIC ([13]; strain N247-16, agar dilution, Mueller Hinton medium, 10^6 CFU/ml, read-out: MIC): > 1600 mg/L
MIC ([14]; strain N247-21, agar dilution, Mueller Hinton medium, 10^6 CFU/ml, read-out: MIC): 200 mg/L (≈ 526 µM)
MIC ([15]; strain N247, agar dilution, Mueller Hinton medium, 10^6 CFU/ml, read-out: MIC): 50 mg/L (≈ 131 µM)
MIC ([16]; strain N262, agar dilution, Mueller Hinton medium, 10^6 CFU/ml, read-out: MIC): 100 mg/L (≈ 263 µM)
MIC ([17]; strain N267, agar dilution, Mueller Hinton medium, 10^6 CFU/ml, read-out: MIC): 100 mg/L (≈ 263 µM)
MIC ([18]; strain N28, agar dilution, Mueller Hinton medium, 10^6 CFU/ml, read-out: MIC): 1600 mg/L (≈ 4210 µM)
MIC ([19]; strain N326, agar dilution, Mueller Hinton medium, 10^6 CFU/ml, read-out: MIC): 1600 mg/L (≈ 4210 µM)
MIC ([20]; strain N51, agar dilution, Mueller Hinton medium, 10^6 CFU/ml, read-out: MIC): 1.56 mg/L (≈ 4.1 µM)
MIC ([21]; strain N62, agar dilution, Mueller Hinton medium, 10^6 CFU/ml, read-out: MIC): 3.13 mg/L (≈ 8.23 µM)
MIC ([22]; strain N64, agar dilution, Mueller Hinton medium, 10^6 CFU/ml, read-out: MIC): 1600 mg/L (≈ 4210 µM)
MIC ([23]; strain N83, agar dilution, Mueller Hinton medium, 10^6 CFU/ml, read-out: MIC): 3.13 mg/L (≈ 8.23 µM)
MIC ([24]; strain N8, agar dilution, Mueller Hinton medium, 10^6 CFU/ml, read-out: MIC): 1.56 mg/L (≈ 4.1 µM)
MIC ([25]; strain N91, agar dilution, Mueller Hinton medium, 10^6 CFU/ml, read-out: MIC): 1.56 mg/L (≈ 4.1 µM)
MIC ([26]; strain TS-65, agar dilution, Mueller Hinton medium, 10^6 CFU/ml, read-out: MIC): > 1600 mg/L
MIC ([27]; strain TST-75, agar dilution, Mueller Hinton medium, 10^6 CFU/ml, read-out: MIC): 12.5 mg/L (≈ 32.9 µM)
Structure (SMILES): COc1cccc(OC)c1C(=O)N[C@@H]1C(=O)N2[C@@H]1SC(C)(C)[C@@H]2C(=O)O [DMPPC, Methicillin]

Structure (SMILES): CC[C@H]1OC(=O)[C@H](C)[C@@H](O[C@H]2C[C@@](C)(OC)[C@@H](O)[C@H](C)O2)[C@H](C)[C@@H](O[C@@H]2O[C@H](C)C[C@H](N(C)C)[C@H]2O)[C@](C)(O)C[C@@H](C)C(=O)[C@H](C)[C@@H](O)[C@]1(C)O [EM, Erythromycin]
MIC ([1]; C10): > 100 mg/L
MIC ([2]; C3): > 100 mg/L
MIC ([3]; C4): 0.39 mg/L (≈ 0.531 µM)
MIC ([4]; C7): 12.5 mg/L (≈ 17 µM)
MIC [5]: 0.39 mg/L (≈ 0.531 µM)
MIC ([6]; N121): 0.39 mg/L (≈ 0.531 µM)
MIC ([7]; N129): 0.39 mg/L (≈ 0.531 µM)
MIC [8]: > 100 mg/L
MIC [9]: > 100 mg/L
MIC ([10]; N176): > 100 mg/L
MIC ([11]; N235): > 100 mg/L
MIC ([12]; N237): > 100 mg/L
MIC [13]: 3.13 mg/L (≈ 4.26 µM)
MIC [14]: 6.25 mg/L (≈ 8.52 µM)
MIC ([15]; N247): 6.25 mg/L (≈ 8.52 µM)
MIC ([16]; N262): > 100 mg/L
MIC ([17]; N267): > 100 mg/L
MIC ([18]; N28): > 100 mg/L
MIC ([19]; N326): > 100 mg/L
MIC ([20]; N51): 0.39 mg/L (≈ 0.531 µM)
MIC ([21]; N62): > 100 mg/L
MIC ([22]; N64): > 100 mg/L
MIC ([23]; N83): > 100 mg/L
MIC ([24]; N8): > 100 mg/L
MIC ([25]; N91): 0.39 mg/L (≈ 0.531 µM)
MIC [26]: > 100 mg/L
MIC [27]: > 100 mg/L

Structure (SMILES): NC[C@H]1O[C@H](O[C@H]2[C@H](O)[C@@H](O[C@H]3O[C@H](CO)[C@@H](O)[C@H](N)[C@H]3O)[C@H](N)C[C@@H]2N)[C@H](O)[C@@H](O)[C@@H]1O [KM, Kanamycin]
MIC ([1]; C10): > 100 mg/L
MIC ([2]; C3): > 100 mg/L
MIC ([3]; C4): > 100 mg/L
MIC ([4]; C7): > 100 mg/L
MIC [5]: 0.39 mg/L (≈ 0.805 µM)
MIC ([6]; N121): > 100 mg/L
MIC ([7]; N129): > 100 mg/L
MIC [8]: 1.56 mg/L (≈ 3.22 µM)
MIC [9]: 1.56 mg/L (≈ 3.22 µM)
MIC ([10]; N176): 3.13 mg/L (≈ 6.46 µM)
MIC ([11]; N235): 100 mg/L (≈ 206 µM)
MIC ([12]; N237): > 100 mg/L
MIC [13]: > 100 mg/L
MIC [14]: > 100 mg/L
MIC ([15]; N247): > 100 mg/L
MIC ([16]; N262): > 100 mg/L
MIC ([17]; N267): > 100 mg/L
MIC ([18]; N28): > 100 mg/L
MIC ([19]; N326): > 100 mg/L
MIC ([20]; N51): 3.13 mg/L (≈ 6.46 µM)
MIC ([21]; N62): 25 mg/L (≈ 51.6 µM)
MIC ([22]; N64): > 100 mg/L
MIC ([23]; N83): > 100 mg/L
MIC ([24]; N8): 1.56 mg/L (≈ 3.22 µM)
MIC ([25]; N91): > 100 mg/L
MIC [26]: > 100 mg/L
MIC [27]: > 100 mg/L
